# Source: paper PMC10762078, “Role of UPF1-LIN28A interaction during early differentiation of pluripotent stem cells” (Nature Communications, 2024)
# Ends that are not written are not given here.
# Experiments:
# [1] = system: nonsense-mediated mRNA decay (NMD); test: NMD reporter mRNA by RT-qPCR in HeLa cells without LIN28A, with CPP-peptides (Supplementary Fig. 5c); type: cell-based; details: no LIN28A, 2 μM, n = 5
# Description: For CPP-conjugated peptide delivery, HeLa, 293T, and PA-1 cells were incubated with CPP-conjugated peptides or CPP-FITC at 2 μM in DMEM with 10% FBS for 12 h a day before cell harvest. hPSCs were treated with CPP-conjugated peptides at 10 μM in mTeSR Plus Medium, and the peptide-containing medium was changed every day over 10 days. The ROCK inhibitor (Tocris Bioscience, Y-27632) treated-hPSCs were dissociated into single cells using Accutase (Merck, SCR005) and differentiated into ectoderm, mesoderm, and endoderm using the STEMdiff Trilineage Differentiation Kit ([…] Technologies, 05230) following the manufacturer’s protocol. Differentiated cells treated with CPP-conjugated peptides were analysed at 0, 3, and 5 days for ectoderm and endoderm, and at 0, 3, and 4 days for mesoderm. […]
# cDNA was synthesised using RevertAid Reverse Transcriptase (Thermo Fisher Scientific, EP0441) with synthesised random hexamer (Macrogen) for total RNA or stem-loop primers for miRNA. For RT-qPCR reactions, the SensiFAST SYBR No-ROX kit (Meridian Bioscience) was used according to the manufacturer’s protocol. All data analysis and visualisation were conducted using R 3.6.1 [www.r-project.org] or GraphPad Prism 10. RT primers for miRNA and RT-qPCR primer sequences are provided in Supplementary Data 6. […]
# His-LIN28A = target: T1, His-LIN28A (Homo sapiens, UniProt Q9H9Z2); test: SPR kinetic evaluation of peptide binding to immobilised His-LIN28A
# T1 construct: purchased LS-bio LS-G637
# T1 sequence (Q9H9Z2 1-209): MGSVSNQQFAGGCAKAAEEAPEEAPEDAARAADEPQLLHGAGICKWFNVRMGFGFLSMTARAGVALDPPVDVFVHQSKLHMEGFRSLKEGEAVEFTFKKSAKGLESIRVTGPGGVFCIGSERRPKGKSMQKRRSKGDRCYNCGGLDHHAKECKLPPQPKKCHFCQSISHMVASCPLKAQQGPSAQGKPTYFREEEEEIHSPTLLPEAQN
# Description: For ligand immobilisation, the nitrilotriacetic acid (NTA) surface gold sensor chip (icluebio) was activated with 5 mM NiCl2 (Xantec) at a flow rate of 30 μL/min, following equalisation with 1× HBS-T buffer. His-LIN28A (LS-bio, LS-G637) was used as a ligand protein and was applied to a sensor chip at a flow rate of 10 μL/min for 40 min after dilution in 1× HEPES-buffered saline (HBS-T) buffer at a 1/20 ratio. Approximately 1000 resonance units (RU) were bonded to the sensor chip after ligand immobilisation. RU was measured using iMSPR-ProX (icluebio). An indigenous NTA sensor chip was used as a reference channel.
# Kinetics assessment was performed for peptides with RU values greater than 5.
# [2] = system: human fetal neural stem cells (VM-NSCs or CTX-NSCs); test: H2O2-stressed human fetal neural stem cells: survival and neuronal markers (peer review file); type: cell-based; details: compared with CPP-P1
# Text: 4. In addition to identifying the differentiation markers, what are the effects of LIN28A-UPF1 interactions on the functional differentiation phenotypes?
# We observed that the levels of stem cell markers, POU5F1 (OCT4) and NANOG, were reduced when UPF1 and LIN28A interaction was disrupted by the […]
# To determine the effects of CPP-P8 during […]
# split every 4~6-days. After CPP-P8 treatment, the cell phenotypes treated with CPP-P8 looked more like the spontaneous differentiated cells than the ones treated with CPP-P1 and CPP-P2 (Fig. 6c and Supplementary Fig. 6b in the revised manuscript).
# The final experiment to determine the functional phenotypes used treated human fetal neural stem cells (ventral midbrain (VM)-NSCs or cortex (CTX)-NSCs), which was stressed by H2O2, with the peptides (CPP-P1 or P8), and differentiation to neurons was initiated. The immunofluorescence results […]
# neuron markers, Tyrosine hydroxylase (TH) and TUJ1 compared with CPP-P1 treatment. We are preparing another manuscript to show the effects of CPP-P8 on neuronal differentiation, we would like […]
# We hope our additional experiments have addressed the reviewer’s concern.
# Original Manuscript Revised Manuscript
# Fig. 1e Supplementary Fig. 6b
# (1 picture or pasted object on this page, not shown here)
Sequence,effect on NMD in absence of LIN28A [1],"kd (His-LIN28A; His-LIN28A ligand, peptide analyte 30 to 0.95 μM, HBS-T) [s⁻¹]","kon (His-LIN28A; His-LIN28A ligand, peptide analyte 30 to 0.95 μM, HBS-T, read-out: ka) [M⁻¹ s⁻¹]",binding affinity to LIN28A (His-LIN28A; diverse concentrations),cell survival ([2]; DAPI staining),dopaminergic neuron markers TH and TUJ1 [2]
"KKKWCRKKKSSADEKRYRALKRTAERELLMNA [CPP-P8, CPP conjugated to P8]",did not affect NMD in the absence of LIN28A,,,,,
KKKWCRKKKSSADEKRYRALKRTAERELLMNA [P8],,0.0137,2640,high binding affinity to LIN28A,increased cell survival (DAPI staining),upregulated dopaminergic
